Experimental data: publication PMC5610242, “Stapled peptide inhibitors of RAB25 target context-specific phenotypes in cancer” (Nature Communications, 2017)
Each block holds one molecule with its values, some of them ahead of it. Bridge positions count the residues as written; N and C are the ends. Square brackets hold non-standard residues; d marks the D form. Ends that are not written are not given here. Peptide text beside a SMILES is read from it. * marks the point of attachment. FITC = O=C1OC2(c3ccc(O)cc3Oc3cc(O)ccc32)c2ccc(NC(=S)*)cc21; monoethylene glycol = monoethylene glycol moiety; Met(O) = CS(=O)CC[C@H](N)C(=O)O; S5 = C=CCCC[C@](C)(N)C(=O)O; βAla = NCCC(=O)O

What was measured:
[1] = Circular dichroism spectroscopy and thermal denaturation; format: physicochemical; conditions: 50 μM peptide in deionized water, 190–260 nm, room temperature
Protocol: Circular dichroism spectroscopy experiments were performed on a Jasco J-170 using a quartz cuvette (path length: 0.1 cm). Peptides were dissolved to 50 μM in deionized water and CD measurements were recorded at one nm increments between 190 and 260 nm, at room temperature. Thermal denaturation experiments were performed by recording CD absorbance at 222 nm at one-degree increments from 10 to 90 °C using a thermostat-controlled cuvette chamber. Raw denaturation data were fit to sigmoidal curves with Prizm 5 software, and the half-maximal temperature was reported as the peptide T m.

[2] = biological target: T1, RAB11a (activated Q70L mutant) (Homo sapiens, UniProt P62491, Q70L); experiment: Fluorescence polarization binding of FITC-labeled RFP peptides to RAB11a; conditions: FP, 30 min room temperature
T1 construct: GST-RAB11a (1–173, Q70L mutant) in pGEX5x-1; made in house; host or cells: E. coli BL21
T1 sequence (P62491 1-173 Q70L): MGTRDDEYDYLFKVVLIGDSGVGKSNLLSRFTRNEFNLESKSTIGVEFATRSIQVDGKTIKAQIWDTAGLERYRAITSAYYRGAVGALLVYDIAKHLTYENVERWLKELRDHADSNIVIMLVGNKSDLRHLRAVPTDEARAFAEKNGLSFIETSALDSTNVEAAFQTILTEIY
Protocol: (§1) Fluorescence polarization assays were performed with for GST-RAB25 and GST-RAB11a to quantify binding to FITC-labeled unmodified and stapled RFP peptides. Initial fluorescence polarization measurements for RFP1−RFP13 were made by incubating FITC-RFP peptides (25 nM) with threefold dilutions of a given protein in FP buffer, consisting of 20 mM Tris pH 8.0, 150 mM NaCl, 5 mM MgCl2, 2 mM DTT, 10 μM GTP and 2% glycerol. Dilutions and incubations were performed in 96-well, black flat-bottom plates (Nunc) to a total volume of 100 μL, and equilibrated at room temperature for 30 min. Polarization was measured on a Spetramax-M5 multi-label plate reader (Molecular Devices) with λ ex = 485 nm and λ em = 525 nm. Polarization values were determined using the equation: P = (V − H)/(V + H), where P denotes polarization, V denotes vertical emission intensity and H represents horizontal emission intensity. Fraction bound was calculated using the equilibrium maximum polarization value obtained for a given protein among ligands, to which background-subtracted fluorescence polarization values were internally normalized. Fluorescence polarization measurements for FITC-RFP14, 24, 26, 31, and 32 were performed as detailed above with the exception that 10 nM FITC-ligand was used.

RAB25 = biological target: T2, RAB25 (Homo sapiens, UniProt P57735); experiment: Fluorescence polarization binding of FITC-labeled RFP peptides to RAB25; conditions: FP, 30 min room temperature
T2 construct: GST-RAB25 (1–180) in pET41 Ek/LIC; made in house; host or cells: E. coli BL21
T2 sequence (P57735 1-180): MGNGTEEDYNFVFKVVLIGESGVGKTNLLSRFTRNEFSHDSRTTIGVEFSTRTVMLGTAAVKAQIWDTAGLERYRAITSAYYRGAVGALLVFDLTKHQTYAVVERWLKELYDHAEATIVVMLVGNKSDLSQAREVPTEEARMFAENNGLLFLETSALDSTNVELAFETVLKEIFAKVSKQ
Protocol: as §1

[3] = biological target: T3, H6-RAB25:bio-RFP14 complex (Homo sapiens, UniProt P57735); experiment: ALPHAscreen competitive inhibition of RAB25:RFP14 complex formation; format: binding; conditions: H6-RAB25 0.2 μM and bio-RFP14 0.2 μM, mean with 95% C.I., triplicate
T3 construct: His6-RAB25 (1–180) in pET28; made in house; host or cells: E. coli BL21
T3 sequence (P57735 1-180): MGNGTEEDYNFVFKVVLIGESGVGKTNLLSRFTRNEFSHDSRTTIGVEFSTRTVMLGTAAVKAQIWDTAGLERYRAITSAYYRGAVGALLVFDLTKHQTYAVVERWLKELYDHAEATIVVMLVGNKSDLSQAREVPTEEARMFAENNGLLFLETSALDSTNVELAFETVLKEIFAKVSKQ

His6-RAB25 (1–180) [4] = biological target: T4, His6-RAB25 (1–180) (UniProt P57735 1-180); experiment: competition with bio-RFP14 (ALPHAscreen)
T4 chain: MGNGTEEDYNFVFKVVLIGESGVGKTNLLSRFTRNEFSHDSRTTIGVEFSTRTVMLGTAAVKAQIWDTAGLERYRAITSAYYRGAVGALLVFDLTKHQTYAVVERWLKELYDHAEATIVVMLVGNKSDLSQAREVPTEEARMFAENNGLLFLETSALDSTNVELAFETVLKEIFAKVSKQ

His6-RAB25 (1–180) [5] = biological target: T5, His6-RAB25 (1–180) (UniProt P57735 1-180); experiment: AlphaScreen or HTRF; competition: soluble peptide or protein at varied concentration with biotin-RFP14 and H6-RAB25 (0.2 μM each); streptavidin donor and Ni2+-NTA acceptor beads; FP buffer with 0.1% BSA; room temperature; conditions: both partners purified
T5 construct: RAB25, residues 1-180; vector pET28; also called H6-RAB25; His6-labeled RAB25; source: BL21 cells, purified (Ni-NTA, Superdex 75 gel filtration)
T5 sequence (looked up): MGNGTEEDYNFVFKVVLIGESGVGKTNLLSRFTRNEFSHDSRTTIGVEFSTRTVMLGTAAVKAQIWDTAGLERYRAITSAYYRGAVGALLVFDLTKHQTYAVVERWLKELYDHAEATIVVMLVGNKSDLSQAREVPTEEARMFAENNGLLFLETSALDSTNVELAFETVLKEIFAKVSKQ

[6] = biological target: T6, GST-RAB11a (1–173, Q70L mutant) (UniProt P62491 1-173, Q70L); experiment: fluorescence polarisation; FITC-peptide 25 nM with threefold dilutions of GST-RAB protein; 20 mM Tris pH 8.0, 150 mM NaCl, 5 mM MgCl2, 2 mM DTT, 10 μM GTP, 2% glycerol; room temperature, 30 min; apparent Kd; conditions: both partners purified
T6 construct: vector pGEX5x-1; 10 μM GTP in the assay buffer; source: BL21 cells, purified (glutathione sepharose, Superdex 75 gel filtration)
T6 sequence (looked up): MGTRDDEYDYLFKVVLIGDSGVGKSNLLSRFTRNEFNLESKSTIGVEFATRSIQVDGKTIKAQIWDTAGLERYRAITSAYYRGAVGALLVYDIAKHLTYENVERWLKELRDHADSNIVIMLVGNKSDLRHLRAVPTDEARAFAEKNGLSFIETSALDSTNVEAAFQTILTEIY

CD spectrum, secondary structure [1]: β-sheet | binding to RAB11a (in words) ([2]; 25 nM FITC-RFP peptide): micromolar affinities | binding to RAB25 (in words) (RAB25; 25 nM FITC-RFP peptide): micromolar affinities
Molecule: KQEEINFRLQDYIDRIIVAIMETNPSILEVK-NH2 (C-terminus assumed) [RFP3]

Kd ([2]; 10 nM FITC-ligand, GST-RAB11a (1–173, Q70L), FP buffer pH 8.0 with 10 μM GTP, mean with 95% C.I., triplicate, read-out: apparent Kd (95% C.I.) RAB11a): > 5 µM | Kd (RAB25; 10 nM FITC-ligand, GST-RAB25, FP buffer pH 8.0 with 10 μM GTP, mean with 95% C.I., triplicate, read-out: apparent Kd (95% C.I.) RAB25): > 5 µM | IC50 [3]: 3.3 µM
Molecule: CC[C@H](C)[C@H](NC(=O)[C@H](CCCNC(=N)N)NC(=O)[C@H](C)NC(=O)[C@H](C)NC(=O)[C@]1(C)CCCC=CCCC[C@](C)(NC(=O)[C@H](CC(N)=O)NC(=O)[C@H](CCC(N)=O)NC(=O)[C@H](CC(C)C)NC(=O)[C@H](CCCNC(=N)N)NC(=O)[C@H](Cc2ccccc2)NC(=O)[C@H](CC(N)=O)NC(=O)[C@@H](NC(=O)[C@H](CCCNC(=N)N)NC(=O)CCNC(=O)[C@@H](N)Cc2c[nH]c3ccccc23)[C@@H](C)CC)C(=O)N[C@@H]([C@@H](C)CC)C(=O)N[C@@H](CC(=O)O)C(=O)N[C@@H](CCCNC(=N)N)C(=O)N1)C(=O)N[C@@H](C)C(=O)N[C@@H](CCC(=O)O)C(=O)N[C@H](C(=O)N[C@@H](CC(N)=O)C(=O)N1CCC[C@H]1C(=O)N[C@@H](CO)C(=O)N[C@H](C(=O)N[C@@H](CC(C)C)C(=O)N[C@@H](CCC(=O)O)C(=O)N[C@H](C(=O)N[C@@H](CCCCN)C(N)=O)C(C)C)[C@@H](C)CC)[C@@H](C)O [RFP31] (H-W[βAla]RINFRLQN[S5]IDR[S5]AARIAETNPSILEVK-NH2; staple 11-15)

IC50 (His6-RAB25 (1–180) [4]): > 10 µM | binding result (His6-RAB25 (1–180) [5]): binds
B1: GST-FIP3 (649–756) (domain or fragment, UniProt O75154 649-756, looked up)
chain: MGLQEYHSRARESELEQEVRRLKQDNRNLKEQNEELNGQIITLSIQGAKSLFSTAFSESLAAEISSVSRDELMEAIQKQEEINFRLQDYIDRIIVAIMETNPSILEVK
notes: Rab11-FIP3 (Class-II FIP), residues 649-756; vector pGEX 6P-1; no cleavage of GST is described; also called FIP3 protein (residues 649–756); source: BL21 cells, purified (glutathione sepharose, Superdex 75 gel filtration)

fold lower affinity than the unoxidised peptide [6]: ~5 fold
Molecule: {FITC-monoethylene glycol}-KQEEINFRLQDYIDRIIVAI[Met(O)]ETNPSILEVK [RFP5]
